Experimental data as given in US8304447B2, “2-acylaminopropoanol-type glucosylceramide synthase inhibitors” (Genzyme Corporation, priority 2007, dated 2012).

These molecules were tested on GM3 (assay: GM3 Elisa assay). Settings: 48 h, Table 1; B16-FO cells, 2 days incubation; read-out: IC50_uM_Mean.
Assay type: cell-based
Summary of the method: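 Murine B16-FO melanoma cells attached 6 h on collagen, then exposed to compounds for 2 days at 37 °C. After formaldehyde fixation, cell-surface GM3 (NeuAc) was detected by anti-GM3 IgM and peroxidase anti-mouse IgM with Quantablu fluorescence (Ex 325/Em 420).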

| IC50 [nM] | SMILES |
| --- | --- |
| ≤ 100 | O=C(CSc1ccccc1)N[C@H](CN1CCCC1)[C@H](O)c1ccc2c(c1)OCCO2 [Compound 11, N-((1R,2R)-1-(2,3-dihydrobenzo[β][1,4]dioxin-6-yl)-1-hydroxy-3-(pyrrolidin-1-yl)propan-2-yl)-2-(phenylthio)acetamide] |
| ≤ 100 | CC(C)Oc1ccc(C(=O)CCCCC(=O)N[C@H](CN2CCCC2)[C@H](O)c2ccc3c(c2)OCCO3)cc1 [Compound 181, N-((1R,2R)-1-(2,3-dihydrobenzo[b][1,4]dioxin-6-yl)-1-hydroxy-3-(pyrrolidin-1-yl)propan-2-yl)-6-(4-isopropoxyphenyl)-6-oxohexanamide] |
| 100 to 1000 | CC(C)CC(=O)c1ccc(OCCC(=O)N[C@H](CN2CCCC2)[C@H](O)c2ccc3c(c2)OCCO3)cc1 [Compound 187, N-((1R,2R)-1-(2,3-dihydrobenzo[β][1,4]dioxin-6-yl)-1-hydroxy-3-(pyrrolidin-1-yl)propan-2-yl)-3-(4-(3-methylbutanoyl)phenoxy)propanamide (2S,3S)-2,3-dihydroxysuccinate] |
| 100 to 1000 | O=C(Cc1ccc(-c2cccnc2)cc1)N[C@H](CN1CCCC1)[C@H](O)c1ccc2c(c1)OCCO2 [Compound 47, N-((1R,2R)-1-(2,3-dihydrobenzo[β][1,4]dioxin-6-yl)-1-hydroxy-3-(pyrrolidin-1-yl)propan-2-yl)-2-(4-(pyridin-3-yl)phenyl)acetamide] |
| ≤ 100 | O=C(Cc1ccc(OC(F)(F)F)cc1)N[C@H](CN1CCCC1)[C@H](O)c1ccc2c(c1)OCCO2 [Compound 103, N-((1R,2R)-1-(2,3-dihydrobenzo[β][1,4]dioxin-6-yl)-1-hydroxy-3-(pyrrolidin-1-yl)propan-2-yl)-2-(4-(trifluoromethoxy)phenyl)acetamide] |
| 100 to 1000 | O=C(N[C@H](CN1CCCC1)[C@H](O)c1ccc2c(c1)OCCO2)C(=O)c1ccccc1 [Compound 31, N-((1R,2R)-1-(2,3-dihydrobenzoall [1,4]dioxin-6-yl)-1-hydroxy-3-(pyrrolidin-1-yl)propan-2-yl)-2-oxo-2-phenylacetamide] |

Same assay, conditions: 48 h, Table 2; B16-FO cells, 2 days incubation; read-out: IC50_uM_Mean

| IC50 [nM] | SMILES |
| --- | --- |
| ≤ 100 | COc1ccc([C@@H](O)[C@@H](CN2CCCC2)NC(=O)CCCC(=O)c2ccc(OC(C)C)cc2)cc1 [Compound 270, 5-(4-Isopropoxy-phenyl)-5-oxo-pentanoic acid [2-hydroxy-2-(4-methoxy-phenyl)-1-pyrrolidin-1-ylmethyl-ethyl]amide] |
| 3000 to 10000 | C[C@@H](NC(=O)N[C@H](CN1CCCC1)[C@H](O)c1ccc2c(c1)OCCO2)c1ccccc1 [Compound 286, 1-((1R,2R)-1-(2,3-dihydrobenzo[β][1,4]dioxin-6-yl)-1-hydroxy-3-(pyrrolidin-1-yl)propan-2-yl)-3-(®-1-phenylethyl)urea] |
| ≤ 100 | Cc1ccc(C(=O)CCC(=O)N[C@H](CN2CCCC2)[C@H](O)c2ccc3c(c2)CCCC3)cc1 [Compound 264] |
| ≤ 100 | COc1ccc([C@@H](O)[C@@H](CN2CCCC2)NC(=O)CCOc2ccc(C)cc2)cc1 [Compound 247, N-((1R,2R)-1-hydroxy-1-(4-methoxyphenyl)-3-(pyrrolidin-1-yl)propan-2-yl)-3-(p-tolyloxy)propanamide] |
| ≤ 100 | COc1ccc([C@@H](O)[C@@H](CN2CCCC2)NC(=O)CCCCC(=O)c2ccc(OC(C)C)cc2)cc1 [Compound 272] |
| ≤ 100 | COc1ccc(OCCC(=O)N[C@H](CN2CCCC2)[C@H](O)c2ccc3c(c2)OCO3)cc1 [Compound 259] |
| 100 to 1000 | COc1ccc([C@@H](OC(=O)CCOc2ccc(C)cc2)[C@@H](CN2CCCC2)NC(=O)CCOc2ccc(C)cc2)cc1 [Compound 248] |
| ≤ 100 | CCCCCCCC(=O)N[C@H](CN1CCCC1)[C@H](O)c1ccc(OC)cc1 [Compound 320, Octanoic acid [2-hydroxy-2(4-methoxy-phenyl)-1-Pyrrolidin1-ylmethyl-ethyl]-amide] |

Same assay, conditions: Table 1; B16-FO cells, 2 days incubation; read-out: IC50_uM_Mean

| IC50 [nM] | SMILES |
| --- | --- |
| ≤ 100 | O=C(CCC(=O)c1ccc(C(F)(F)F)cc1)N[C@H](CN1CCCC1)[C@H](O)c1ccc2c(c1)OCCO2 [Compound 176, N-((1R,2R)-1-(2,3-dihydrobenzo[β][1,4]dioxin-6-yl)-1-hydroxy-3-(pyrrolidin-1-yl)propan-2-yl)-4-oxo-4-(4-(trifluoromethyl)phenyl)butanamide (2S,3S)-2,3-dihydroxysuccinate] |

Same assay, conditions: Table 2; B16-FO cells, 2 days incubation; read-out: IC50_uM_Mean

| IC50 [nM] | SMILES |
| --- | --- |
| 100 to 1000 | COc1ccc([C@@H](O)[C@@H](CN2CCCC2)NC(=O)OCc2ccccc2)cc1 [Compound 289, benzyl (1R,2R)-1-hydroxy-1-(4-methoxyphenyl)-3-(pyrrolidin-1-yl)propan-2-ylcarbamate] |

Same assay, conditions: Table 3 (IC 50 Values); B16-FO cells; read-out: IC50_uM_Mean

| IC50 [nM] | SMILES |
| --- | --- |
| ≤ 100 | COc1ccc(OCCC(=O)N[C@H](CN2CCCC2)[C@H](O)c2ccc(OCCOc3ccc(Cl)cc3)cc2)cc1 [Compound 723] |
| ≤ 100 | COc1ccc(C(=O)CCCCC(=O)N[C@H](CN2CCCC2)[C@H](O)c2ccc(OCCCOc3cccc(C)c3)cc2)cc1 [Compound 437] |
| 3000 to 10000 | COc1ccc(OCCC(=O)N[C@H](CN2[C@H](C)CC[C@H]2C)[C@H](O)c2ccc3c(c2)OCCO3)cc1 [Compound 550] |
| ≤ 100 | COc1ccc(C(=O)CCCCCC(=O)N[C@H](CN2CC3CC3C2)[C@H](O)c2ccc3c(c2)OCCO3)cc1 (stereo partly drawn) [Compound 537] |
| 100 to 1000 | COc1ccc(C(=O)CCCCCC(=O)N[C@H](CN2CCCC2)[C@H](O)c2ccc3c(c2)OC(F)(F)C(F)(F)O3)cc1 [Compound 401] |
| 3000 to 10000 | CCCCCCCC(=O)N[C@H](CN1CC[C@H](F)C1)[C@H](O)c1ccc2c(c1)OCCO2 [Compound 510] |
| ≤ 100 | CCCCCCOc1ccc([C@@H](O)[C@@H](CN2CCCC2)NC(=O)CCCCC(=O)c2ccc(OCCOC)cc2)cc1 [Compound 443] |
| 3000 to 10000 | CCCCCCCC(=O)N[C@H](CN1CCCC(C)C1)[C@H](O)c1ccc2c(c1)OCCO2 (stereo partly drawn) [Compound 613] |
| ≤ 100 | COc1ccc(C(=O)CCCCC(=O)N[C@H](CN2CCCC2)[C@H](O)c2ccc(OC)c(F)c2)cc1 [Compound 344] |
| 100 to 1000 | COc1ccc(C(=O)CCCC(=O)N[C@H](CN2CCCC2)[C@H](O)c2ccc(OC)c(F)c2)cc1 [Compound 343] |
| 100 to 1000 | COCCOc1ccc(C(=O)CCCC(=O)N[C@H](CN2CC[C@H](O)C2)[C@H](O)c2ccc(OC(C)C)cc2)cc1 [Compound 737] |
| 3000 to 10000 | Cc1noc(CCCCC(=O)N[C@H](CN2CC[C@@H](F)C2)[C@H](O)c2ccc3c(c2)OCCO3)n1 [Compound 646] |
| 3000 to 10000 | COC[C@H]1CCCN1C[C@@H](NC(=O)CCCCCC(=O)c1ccc(OC)cc1)[C@H](O)c1ccc2c(c1)OCCO2 [Compound 539] |
| 3000 to 10000 | Cc1nccn1C[C@@H](NC(=O)CCCCCC(=O)c1ccc(F)cc1)C(O)c1ccc2c(c1)OCCO2 (stereo partly drawn) [Compound 569] |
| 100 to 1000 | CC(C)Oc1ccc([C@@H](O)[C@@H](CN2CCC(F)C2)NC(=O)CCOc2ccc(Cl)cc2)cc1 (stereo partly drawn) [Compound 725] |
| 3000 to 10000 | Cc1nccn1C[C@@H](NC(=O)CCCOc1ccc(F)cc1)[C@H](O)c1ccc2c(c1)OCCO2 [Compound 570] |
| 3000 to 10000 | COc1ccc(OCCC(=O)N[C@H](CN2CC[C@H](c3ccccc3)C2)[C@H](O)c2ccc3c(c2)OCCO3)cc1 [Compound 505] |

| IC50 [nM] | SMILES |
| --- | --- |
| ≤ 100 | COc1ccc(OCCC(=O)N[C@H](CN2CC[C@H](O)C2)[C@H](O)c2ccc(OC(C)C)cc2)cc1 [Compound 447] |
| 3000 to 10000 | COc1ccc(C(=O)CCCCCC(=O)N[C@H](CN2CCC(F)(F)CC2)[C@H](O)c2ccc3c(c2)OCCO3)cc1 [Compound 625] |
| 3000 to 10000 | COc1ccc(OCCC(=O)N[C@H](CN2CCC[C@H]2C(F)(F)F)[C@H](O)c2ccc3c(c2)OCCO3)cc1 [Compound 542] |
| 3000 to 10000 | COC[C@@H]1CCCN1C[C@@H](NC(=O)CCOc1ccc(OC)cc1)[C@@H](O)c1ccc2c(c1)OCCO2 [Compound 535] |
| ≤ 100 | COc1ccc(C(=O)CCCCCC(=O)N[C@H](CN2CCC[C@H]2C)[C@@H](O)c2ccc3c(c2)OCCO3)cc1 [Compound 529] |
| ≤ 100 | COc1ccc([C@@H](O)[C@@H](CN2CCCC2)NC(=O)Cc2ccc(OC(F)(F)F)cc2)cc1Cl [Compound 710] |
| ≤ 100 | COc1ccc(C(=O)CCCCCC(=O)N[C@H](CN2CC[C@@H](F)C2)[C@H](O)c2ccc3c(c2)OCCO3)cc1 [Compound 531] |
| 100 to 1000 | COc1ccc(C(=O)CCCCC(=O)N[C@H](CN2CCCC2)[C@H](O)c2ccc(OC)cc2OC)cc1 [Compound 353] |
| 1000 to 3000 | COCCc1ccc([C@@H](O)[C@@H](CN2CCCC2)NC(=O)CCCC(=O)c2ccc(OC)cc2)cc1 [Compound 355] |
| 3000 to 10000 | COc1ccc(OCCC(=O)N(CC(=O)c2ccc(OC)cc2)[C@H](CN2CCCC2)[C@H](O)c2ccc(O)cc2)cc1 [Compound 715] |
| ≤ 100 | COCCOc1ccc(C(=O)CCCC(=O)N[C@H](CN2CCCC2)[C@H](O)c2ccc3c(c2)OCCO3)cc1 [Compound 449] |
| 3000 to 10000 | COc1ccc(C(=O)CCCCCC(=O)N[C@H](CCN2CCCC2)[C@H](O)c2ccc3c(c2)OCCO3)cc1 [Compound 688] |
| 100 to 1000 | CC(O)(CCCCCC(=O)N[C@H](CN1CCCC1)[C@H](O)c1ccc2c(c1)OCCO2)C1CC1 (stereo partly drawn) [Compound 629] |
| ≤ 100 | COc1ccc(C(=O)CCCCC(=O)N[C@H](CN2CCCC2)[C@H](O)c2ccc(OCC3CCC3)cc2)cc1 [Compound 421] |
| 100 to 1000 | CC(O)(CCCCCC(=O)N[C@H](CN1CCCC1)[C@H](O)c1ccc2c(c1)OCCO2)C1CCCC1 (stereo partly drawn) [Compound 633] |
| 1000 to 3000 | CCCCCCCC(=O)N[C@H](CN1CCCC1)[C@H](O)c1ccc(Cl)cc1 [Compound 385] |
| 100 to 1000 | CCCN(C)C[C@H](NC(=O)CCCCCC(=O)c1ccc(OC)cc1)[C@@H](O)c1ccc2c(c1)OCCO2 [Compound 470] |

| SMILES | IC50 [nM] |
| --- | --- |
| O=C(CCCC(=O)c1ccc(F)cc1)N[C@H](CN1C2CCC1CC2)[C@H](O)c1ccc2c(c1)OCCO2 [Compound 474] | 100 to 1000 |
